Source: patent publication US20220267365A1, “NOVEL PHOSPHATE ESTER COMPOUND HAVING PYRROLOPYRIMIDINE SKELETON OR PHARMACEUTICALLY ACCEPTABLE SALT THEREOF” (TAIHO PHARMACEUTICAL CO., LTD., priority 2019, published 2022)
Where a name gives a salt, the structure may show the parent alone.

How the values were obtained:
[1] = Test Example 1: presence of prodrug in mouse and absorbency, oral administration, plasma AUC; format: in vivo, mice (Balb/cA, male); conditions: for presence of prodrug in mouse (conversion into active compound): oral administration
Procedure: The dosage amounts of the compound of Comparative Example 1, a triethylamine salt of the compound of Example 1, the compound of Comparative Example 2 and the compound of Example 2 were set to be 50 mg/10 mL/kg, 62 mg/10 mL/kg (50 mg/10 mL/kg in terms of free compound), 3 mg/10 mL/kg, and 3.6 mg/10 mL/kg, respectively. Solutions for administration were prepared with a 0.5% aqueous solution of HPMC so as to satisfy the above dosage amounts. Note that a solution for administration of a triethylamine salt of the compound of Example 1 was prepared by adding 1 molar equivalent of triethylamine.
The dosage amounts of the compound of Comparative Example 3 and the compound of Example 5 were set to be 3 mg/10 mL/kg and 3.8 mg/10 mL/kg, respectively. Solutions thereof for administration were prepared with a 0.5% aqueous solution of HPMC so as to satisfy the above dosage amounts.
Note that, the “mg/10 mL/kg” means as follows: for example “50 mg/10 mL/kg” means that 50 mg of a test compound per body-weight (1 kg) of a mouse was dispersed or dissolved in a solution (10 mL) for administering a compound. The same applies hereinafter.
The solutions for administration prepared above were orally administered to mice (Balb/cA, male) not fasted each by use of an oral administration sonde.
The mice were anesthetized with isoflurane 0.5, 1, 2, 4 and 6 hours after administration and blood was taken from the facial vein by use of a specific needle (animal lancet) and a heparin-coated hematocrit tube.
The blood sampled was immediately centrifuged (13000 rpm, 2 minutes, 4° C.) to prepare the plasma samples. After proteins were removed from the plasma samples, the concentrations of the test compound in the plasma samples were measured by LC/MS/MS.
The value of “area under the curve” (AUC) of drug concentration in blood versus time was calculated using analysis software such as Phoenix (registered trademark) WinNonlin (registered trademark).
More specifically, the results of the compounds of Comparative Examples 1 and 2 and triethylamine salt of Example 1, and the compound of Example 2 are shown in Table 2; whereas, the results of the compounds of Comparative Example 3 and Example 5 are shown in Table 3. In Table 2 and Table 3, “Comparative Example 1”, “Comparative Example 2”, and “Comparative Example 3” represent the “compound (Br form) of Comparative Example 1”, the “compound (I form) of Comparative Example 2” and the “compound (Cl form) of Comparative Example 3”, respectively.

[2] = Test Example 2: presence of prodrug in mouse and absorbency, caudal vein administration, plasma AUC; format: in vivo, mice (Balb/cA, male); conditions: for presence of prodrug in mouse (conversion into active compound): caudal vein administration of disodium salts; for AUC(0-t): male, Balb/cA, caudal vein, physiological saline, mouse plasma, unchanged prodrug
Procedure: The dosage amounts of a disodium salt of the compound of Example 1, a disodium salt of the compound of Example 2, a disodium salt of the compound of Example 3, a disodium salt of the compound of Example 4 and a disodium salt of the compound of Example 5 were set to be 26 mg/5 mL/kg, 12 mg/5 mL/kg, 12 mg/5 mL/kg, 12 mg/5 mL/kg, and 11 mg/5 mL/kg, respectively. Solutions for administration were prepared by dissolving the compounds in physiological saline so as to satisfy the above dosage amounts, respectively. Note that solutions for administration of disodium salts of the compounds of Examples 1 to 4 were prepared by adding 2 molar equivalents of sodium hydroxide.
Mice (Balb/cA, male) not fasted were each immobilized on a specific fixed table, sterilized with ethanol for disinfection. Each of the solutions prepared above was administered through the caudal vein by use of a syringe and a needle.
Blood was taken from the facial vein, 0.25, 0.5, 1, 2, 4 and 6 hours after administration by use of a specific needle (animal lancet) and a heparin-coated hematocrit tube.
The blood sampled were immediately centrifuged (13000 rpm, 2 minutes, 4° C.) to prepare the plasma samples. After proteins were removed from the plasma samples, the concentrations of the test compound in the plasma samples were measured by LC/MS/MS.
The value of AUC was calculated using analysis software such as Phoenix (registered trademark), WinNonlin (registered trademark).
The AUC (AUC 0-6 hr) values obtained in the time period of 0 to 6 hours after administration of sodium salts of the compounds of Example 1 to 4 are shown in Table 4; and the AUC (AUC 0-6 hr) values obtained in the time period of 0 to 6 hours after administration of a sodium salt of the compound of Example 5 are shown in Table 5. In Table 4 and Table 5, “Comparative Example 1”, “Comparative Example 2” and “Comparative Example 3” represent the “compound (Br form) of Comparative Example 1”, the “compound (I form) of Comparative Example 2”, and the “compound (Cl form) of Comparative Example 3”, respectively.

[3] = tested on: human hematopoietic organ tumor cell line (MV-4-11); assay: Test Example 7: antitumor effect and toxicity in mouse, subcutaneous MV-4-11 transplant
Procedure: A human hematopoietic organ tumor cell line (MV-4-11) was subcutaneously transplanted in the right chest of each of BALB/cA Jcl-nu/nu mice. After tumor transplantation, the major axes (mm) and minor axes (mm) of the tumors were measured and tumor volumes (TV) were calculated. The mice were assigned to individual groups such that the average TVs of the groups became equal. The day of grouping mice was determined Day 0.
Thereafter, administration was continued as long as a weight loss was acceptable and then evaluated.
The tumor volumes (TV) and body weights (BW) of individual groups were evaluated. As the indexes of antitumor effect and toxicity, the relative tumor volume (RTV) to that of Day 0 and a body weight change (BWC) relative to that of Day 0 were obtained, respectively, in accordance with the following equations and plotted on a chart.
BWC (%)=(BW on evaluation date−BW on Day 0)/(BW on Day 0)×100
T/C (%)=(Number of blood cell component in administration group/Number of blood cell component in control group)×100

[4] = tested on: human brain tumor cell line (U-87 MG); assay: Test Example 6: antitumor effect and toxicity in mouse, subcutaneous U-87 MG transplant; format: in vivo, BALB/cA Jcl-nu/nu mice
Procedure: The day of grouping mice was determined Day 0.
TV (mm^3)=(major axis×minor axis^2)/2
RTV=(TV on evaluation date)/(TV on Day 0)
IR (%)=(1−(RTV of administration group on evaluation date)/(RTV of control group on evaluation date))×100

[5] = tested on: H1650; assay: Test Example 4 growth suppression activity, CellTiter-Glo; format: cell-based; conditions: NCI-H1650, 72 h; H1650, Human lung cancer, 3 days
Procedure: (§1) Human tumor cell lines different in type were suspended in mediums, seeded in individual wells of a multi-well plate and cultured. On the day after initiation of culture, serially diluted solutions of a compound were added. Culture was carried out for further 3 days. Cells were counted by a CellTiter-Glo (manufactured by Promega KK) in accordance with the protocol recommended by Promega KK. Cell viability was calculated in accordance with the equation shown below and the concentration (IC50 (nM)) of the compound at which 50% of cell growth is inhibited was obtained.
(§2) Cell viability (%)=(T/C)×100
(§3) T: Intensity of light emitted from a well containing a compound
(§4) C: Intensity of light emitted from a well containing no compound

[6] = tested on: A549; assay: as above; format: cell-based; conditions: 72 h; A549, Human lung cancer, 3 days
Procedure: as §1, §2, §3, §4

[7] = tested on: H2122; assay: as above; format: cell-based; conditions: NCI-H2122, 72 h; H2122, Human lung cancer, 3 days
Procedure: as §1, §2, §3, §4

[8] = tested on: H358; assay: as above; format: cell-based; conditions: NCI-H358, 72 h; H358, Human lung cancer, 3 days
Procedure: as §1, §2, §3, §4

[9] = tested on: DU145; assay: Test Example 3 growth suppression activity, CellTiter-Glo; format: cell-based; conditions: DU-145, 72 h; DU145, Human prostate cancer, 3 days
Procedure: as §1, with “(μM))” for “(nM))”
as §2, §3, §4

[10] = iv, 12 mg/kg, read-out: AUC 0-6 hr in terms of the administered Example compound

SMILES: Nc1ncnc2c1c(Br)cn2[C@@H]1O[C@H](COP(=O)(O)O)[C@@H](O)[C@@H]1F [Example 1, ((2R,3R,4S,5R)-5-(4-amino-5-bromo-7H-pyrrolo[2,3-d]pyrimidin-7-yl)-4-fluoro-3-hydroxytetrahydrofuran-2-yl)methyl dihydrogen phosphate]
- presence of prodrug in mouse (conversion into active compound) [1]: prodrug of the compound (Br form) of Comparative Example 1
- presence of prodrug in mouse (conversion into active compound) [2]: prodrug of the compound (Br form) of Comparative Example 1

SMILES: Nc1ncnc2c1c(I)cn2[C@@H]1O[C@H](COP(=O)(O)O)[C@@H](O)[C@@H]1F [Example 2, ((2R,3R,4S,5R)-5-(4-amino-5-iodo-7H-pyrrolo[2,3-d]pyrimidin-7-yl)-4-fluoro-3-hydroxytetrahydrofuran-2-yl)methyl dihydrogen phosphate]
- continuation of administration compared to Comparative Example 2-compound administration group ([3]; Day 15 vs Day 11 (Comparative Example 2 oral 12 mg/kg/day)): continued longer
- effect on body weight (BWC) ([3]; osmotic pump 20 mg/kg/day for 14 days): low
- hematological toxicity (lymphocytes, monocytes T/C) ([3]; osmotic pump 20 mg/kg/day for 14 days, Day 15): low
- antitumor effect (RTV) ([3]; osmotic pump 20 mg/kg/day for 14 days, final day Day 15): remarkable antitumor effect (tumor regression was confirmed)
- presence of prodrug in mouse (conversion into active compound) [1]: prodrug of the compound (I form) of Comparative Example 2
- continuation of administration compared to Comparative Example 2-compound administration group ([4]; administration continued until weight loss 20% or more, Day 13 vs Day 6): continued longer
- effect on body weight (BWC) ([4]; oral 14.4 mg/kg/day every day): mild
- antitumor effect (IR based on RTV) ([4]; oral 14.4 mg/kg/day every day, final day of evaluation Day 13, compared with Comparative Example 2 12 mg/kg/day, Day 6): high antitumor effect

SMILES: Nc1ncnc2c1c(Br)cn2[C@@H]1O[C@H](COP(=O)(O)O)[C@@H](O)[C@@H]1F [Disodium salt of Example 1, ((2R,3R,4S,5R)-5-(4-amino-5-bromo-7H-pyrrolo[2,3-d]pyrimidin-7-yl)-4-fluoro-3-hydroxytetrahydrofuran-2-yl)methyl dihydrogen phosphate]
- AUC(0-t) ([2]; iv, 26 mg/kg, read-out: AUC 0-6 hr in terms of Example 1): 0.15 µM·h

SMILES: Nc1ncnc2c1c(I)cn2[C@@H]1O[C@H](CO)C(OP(=O)(O)O)C1F (stereo partly drawn) [Disodium salt of Example 4, (2R,3R,4S,5R)-5-(4-amino-5-iodo-7H-pyrrolo[2,3-d]pyrimidin-7-yl)-4-fluoro-2-(hydroxymethyl) tetrahydrofuran-3-yl dihydrogen phosphate]
- AUC(0-t) [2, 10]: 9.35 µM·h

SMILES: Nc1ncnc2c1c(I)cn2[C@@H]1O[C@H](COP(O)(O)=S)[C@@H](O)[C@@H]1F [Disodium salt of Example 3, O-(((2R,3R,4S,5R)-5-(4-amino-5-iodo-7H-pyrrolo[2,3-d]pyrimidin-7-yl)-4-fluoro-3-hydroxytetrahydrofuran-2-yl)methyl) O,O-dihydrogen phosphorothioate]
- AUC(0-t) [2, 10]: 0.18 µM·h

SMILES: Nc1ncnc2c1c(I)cn2[C@@H]1O[C@H](COP(=O)(O)O)[C@@H](O)[C@@H]1F [Disodium salt of Example 2, ((2R,3R,4S,5R)-5-(4-amino-5-iodo-7H-pyrrolo[2,3-d]pyrimidin-7-yl)-4-fluoro-3-hydroxytetrahydrofuran-2-yl)methyl dihydrogen phosphate]
- AUC(0-t) [2, 10]: 0.64 µM·h

SMILES: Nc1ncnc2c1c(Cl)cn2[C@@H]1O[C@H](COP(=O)(O)O)[C@@H](O)[C@@H]1F [Example 5, ((2R,3R,4S,5R)-5-(4-amino-5-chloro-7H-pyrrolo[2,3-d]pyrimidin-7-yl)-4-fluoro-3-hydroxytetrahydrofuran-2-yl)methyl dihydrogen phosphate]
- presence of prodrug in mouse (conversion into active compound) [1]: prodrug of the compound (Cl form) of Comparative Example 3
- presence of prodrug in mouse (conversion into active compound) [2]: prodrug of the compound (Cl form) of Comparative Example

SMILES: Nc1ncnc2c1c(Br)cn2[C@@H]1O[C@H](CO)[C@@H](O)[C@@H]1F [Comparative Example 1, (2R,3R,4S,5R)-5-(4-amino-5-bromo-7H-pyrrolo[2,3-d]pyrimidin-7-yl)-4-fluoro-2-(hydroxymethyl) tetrahydrofuran-3-ol]
- IC50 [5]: 11 nM
- IC50 [6]: 24 nM
- IC50 [7]: 17 nM
- IC50 [8]: 69 nM
- AUC(0-t) ([1]; male, Balb/cA, oral, 50 mg/kg (0.14 mmol/kg), 0.5% HPMC, mouse plasma, administered compound, read-out: AUC 0-6 hr): 20.2 µM·h
- IC50 [9]: 90 nM

SMILES: Nc1ncnc2c1c(Cl)cn2[C@@H]1O[C@H](COP(=O)(O)O)[C@@H](O)[C@@H]1F [Disodium salt of Example 5, ((2R,3R,4S,5R)-5-(4-amino-5-chloro-7H-pyrrolo[2,3-d]pyrimidin-7-yl)-4-fluoro-3-hydroxytetrahydrofuran-2-yl)methyl dihydrogen phosphate]
- AUC(0-t) ([2]; intravenous, 11 mg/kg, read-out: AUC 0-6 hr in terms of Example 5): 0.08 µM·h
